The test system of one test is 5637 (bladder). The test can be described thus: Growth inhibition IC50, 5637 (bladder) cell line. Type of test: cell-based. Conditions: value (standard deviation). The protocol:
(§1) When we compare the effect of changing the diamine from the non-chiral 1,2-diaminoethane (en) to the chiral ligands and 2S,3S-diaminobutane (2S,3S-bn) and 2R,3R-diaminobutane (2R,3R-bn) then the concentration inhibiting the exponential growth of cells to 50% is further reduction from 27.0 to 1.11 and 0.32 μM respectively.

The next test has as its system KYSE 520 (esophagus). Put plainly: Growth inhibition IC50, KYSE 520 (esophagus) cell line. Type of test: cell-based. Conditions: value (standard deviation). The protocol:
as §1

Another test relates to LCLC-103H (lung). Put plainly: Growth inhibition IC50, LCLC-103H (lung) cell line. The settings on record: value (standard deviation). Type of test: cell-based. The protocol:
as §1

In another test the test system is A-427 (lung). Put plainly: Growth inhibition IC50, A-427 (lung) cell line. Type of test: cell-based. Conditions: value (standard deviation). The protocol:
as §1

Test [1] deals with L1210 mouse leukaemia cells. Put plainly: CC growth inhibition assay, L1210. The settings on record: Test CC, 40 μM highest dose tested. Type of test: cell-based. The source says:
(§2) The data presented in Table3 is the results collected from the growth inhibition studies of selected compounds with the following cell lines: L1210 (mouse leukaemia cells), 2008 (human ovarian carcinoma cells), L1210/DDP and C13*5 (acquired cisplatin resistance) and SKOV-3 (intrinsic cisplatin resistance).

The test system of test [2] is L1210/DDP cisplatin-resistant cells. Put plainly: CC growth inhibition assay, L1210/DDP. Type of test: cell-based, mouse. The settings on record: Test CC, 40 μM highest dose tested.
Description: as §2

The test system of test [3] is SKOV-3 cells (intrinsically resistant to cisplatin). The test can be described thus: Sulphorhodamine B (SRB) growth inhibition assay, SKOV-3. Conditions: Test SRB, intrinsic cisplatin resistance. Type of test: cell-based.
Description: as §2

Test [4] concerns C13*5 cisplatin-resistant cells. The test can be described thus: Sulphorhodamine B (SRB) growth inhibition assay, C13. Type of test: cell-based, human. Conditions: Test SRB, acquired cisplatin resistance.
Description: as §2

In test [5] the test system is 2008 human ovarian carcinoma cells. Put plainly: Sulphorhodamine B (SRB) growth inhibition assay, 2008. Type of test: cell-based. Conditions: Test SRB.
Description: as §2

The mark [6] stands for this setting: first run, read-out: IC50 5637 (bladder).
The mark [7] stands for this setting: repeat run, read-out: IC50 5637 (bladder) Repeat.
The mark [8] stands for this setting: listed as [Pt(S,S-bn)(phen)]Cl2.
[9] abbreviates: listed as [Pt(R,R-bn)(phen)]Cl2.
The mark [10] stands for this setting: listed as [Pt(S,S-dach)(phen)](ClO4)2.
[11] abbreviates: listed as [Pt(R,R-dach)(phen)](ClO4)2.

Where “and” joins values, the source holds several entries; their conditions need not be identical. Identical values can stand only once. Like-named read-outs stand apart in the source and are kept apart here.

As for `N.N.[Cl][Pt][Cl]` [CDDP, cis-diamminedichloroplatinum (II), reference compound], the IC50 in the test with 5637 (bladder) (setting [6]) was 0.88 µM; in the test on 5637 (bladder) (setting [7]), 0.43 µM; in the test on KYSE 520 (esophagus), 6.63 µM; in the test with LCLC-103H (lung), 1.44 µM; in the test on A-427 (lung), 4.46 µM.

`CC(N)C(C)N.[Cl-].[Cl-].[Pt+2].c1cnc2c(c1)ccc1cccnc12` [[Pt(2S,3S-bn)(phen)]Cl2] [(2S,3S-butanediamine)(1,10-phenanthroline)platinum(II) cation]: the IC50 in the test with 5637 (bladder) (setting [6]) is 1.11 µM; in the test with 5637 (bladder) (setting [7]), 0.98 µM; in test [1] (setting [8]) it was 3.8 µM and 3 µM; in the test with KYSE 520 (esophagus) it was 1.87 µM; in [2] (setting [8]), 5.3 µM and 8 µM; in test [3] (setting [8]), 9.8 µM and 9.2 µM and 12 µM. Further, the IC50 is 26 µM and 22 µM and 28 µM in test [4] (setting [8]); 2.39 µM in the test with LCLC-103H (lung); 1.35 µM in the test on A-427 (lung); 7.2 µM and 11 µM in test [5] (setting [8]).

As to `[Cl-].[Cl-].c1cc2ccc3ccc[n+]4c3c2[n+](c1)[Pt-2]41[NH2+]CC[NH2+]1` [[Pt(en)(phen)]Cl2, reference compound], the IC50 was 27 µM with 5637 (bladder) (setting [6]); 23.7 µM in the test with 5637 (bladder) (setting [7]); 49.1 µM with KYSE 520 (esophagus); 41.2 µM with LCLC-103H (lung); 24.1 µM in the test with A-427 (lung).

With `CC(N)C(C)N.[Cl-].[Cl-].[Pt+2].c1cnc2c(c1)ccc1cccnc12` [[Pt(meso-2,3-bn)(phen)]Cl2] [(2S,3R-butanediamine)(1,10-phenanthroline)platinum(II) cation], the IC50 was found to be 0.61 µM in the test with 5637 (bladder) (setting [6]); 0.72 µM with 5637 (bladder) (setting [7]); 1.09 µM with KYSE 520 (esophagus); 1.07 µM in the test with LCLC-103H (lung); 0.92 µM in the test on A-427 (lung).

Regarding `CC(N)C(C)N.[Cl-].[Cl-].[Pt+2].c1cnc2c(c1)ccc1cccnc12` [[Pt(2R,3R-bn)(phen)]Cl2] [(2R,3R-butanediamine)(1,10-phenanthroline)platinum(II) cation], the IC50 in the test with 5637 (bladder) (setting [6]) was 0.32 µM; in the test on 5637 (bladder) (setting [7]) it was 0.43 µM; in [1] (setting [9]), 1.5 µM; in the test on KYSE 520 (esophagus) it was 0.67 µM; in [2] (setting [9]) it was 2.5 µM and 1.9 µM; in test [4] (setting [9]) it was 5.2 µM and 9 µM and 7.4 µM. The IC50 stood at 0.78 µM in the test with LCLC-103H (lung) and 0.54 µM in the test on A-427 (lung).

Regarding `N[C@H]1CCCC[C@@H]1N.[O-][Cl+3]([O-])([O-])[O-].[O-][Cl+3]([O-])([O-])[O-].[Pt+2].c1cnc2c(c1)ccc1cccnc12` [[Pt(phen)(S,S-dach)](ClO4)2, (1S,2S-cyclohexanediamine)(1,10-phenanthroline)platinum(II) cation], the IC50 in the test with 5637 (bladder) (setting [7]) is 0.15 µM; in test [1], 0.13 µM; in [2], 0.28 ± 0.09 µM; in test [3] (setting [10]) it was 0.31 µM and 0.42 µM; in test [4] (setting [10]), 0.56 µM and 0.88 µM; in [5] (setting [10]) it was 0.37 µM and 0.45 µM.

For the compound `NCCN.[Cl-].[Cl-].[Pt+2].c1cnc2c(c1)c1nccnc1c1cccnc12` [[Pt(en)(dpq)]Cl2], the IC50 was determined as 16.7 µM in the test with 5637 (bladder) (setting [6]), 19.4 µM in the test on KYSE 520 (esophagus), 23.6 µM with LCLC-103H (lung) and 16.4 µM with A-427 (lung).

For the compound “(N,N′-dimethyl-1R,2R-cyclohexanediamine)(1,10-phenanthroline)platinum(II) cation [[Pt(phen)(Me2-R,R-dach)](ClO4)2]”, the IC50 with 5637 (bladder) (setting [7]) amounted to 23.6 µM.

For the compound “(N,N′-dimethyl-1S,2S-cyclohexanediamine)(1,10-phenanthroline)platinum(II) cation [[Ptphen)(Me2-S,S-dach](ClO4)2]”, the IC50 with 5637 (bladder) (setting [7]) is 55.6 µM; in test [1] (listed as [Pt(Me2—S,S-dach)(phen)](ClO4)2) it was 12 µM.

Take `N[C@@H]1CCCC[C@H]1N.[O-][Cl+3]([O-])([O-])[O-].[O-][Cl+3]([O-])([O-])[O-].[Pt+2].c1cnc2c(c1)ccc1cccnc12` [[Pt(phen)(R,R-dach)](ClO4)2, (1R,2R-cyclohexanediamine)(1,10-phenanthroline)platinum(II) cation]: the IC50 in the test on 5637 (bladder) (setting [7]) was 0.54 µM; in test [1] (setting [11]), 1.4 µM and 1.6 µM; in [2] (setting [11]) it was 4.3 µM and 4.5 µM; in [3] (setting [11]) it was 3.3 µM and 3.6 µM; in test [4] (setting [11]), 5.1 µM and 9.2 µM; in test [5] (setting [11]), 3.3 µM and 3.1 µM.

Source of the values: US7410960B2, “Metal complexes and therapeutic uses thereof” (The University of Western Sydney, priority 2001, dated 2008).
